“And” between values parts separate entries of the source, which are not always exact repeats. Equal values may be shown once. Read-outs that look alike come from different tables or passages of the source.
Assays:
Type in all cases: biochemical
[1] = biological target: T1, human MMP-1 (amino acids 100-262) (Homo sapiens, UniProt P03956); assay: MMP dose response assay for determining IC50, MMP-1; details: recombinant catalytic domain, fluorescent-quench substrate 100 nM
T1 construct: human MMP-1 (amino acids 100-262); made in house
T1 sequence (P03956 100-262): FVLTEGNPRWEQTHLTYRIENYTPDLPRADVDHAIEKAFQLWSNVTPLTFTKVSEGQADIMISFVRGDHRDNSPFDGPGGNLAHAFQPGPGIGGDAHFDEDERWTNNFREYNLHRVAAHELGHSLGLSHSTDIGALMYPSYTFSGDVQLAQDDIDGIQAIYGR
Experimental: (§1) MMP Dose Response Assay for Determining IC50
(§2) The following method was used for determining IC50 values of different inhibitor compounds against multiple MMP enzymes. Frozen stocks of recombinantly produced MMPs were prepared in assay buffer (50 mM HEPES pH 7.4, 10 mM CaCl2, 0.05% Brij-35). […] Enzyme concentrations in the assay were determined empirically and set such that proteolytic activity was maintained in a linear range over the time-course of the experiment. […] Each concentration for each test compound was tested in triplicate. MMP enzymes were equilibrated with compounds for 1 hour at room temperature, then a fluorescent-quench substrate (Acetyl-Cys(Eu)-Pro-Leu-Gly-Leu-Lys-(QSY7)-Ala-Arg-amide) was added to a final concentration of 100 nM. […] Data was analyzed by first calculating average background value from wells that contained only substrate, and this value was subtracted from the entire plate. The 100%, or maximum value, was determined by averaging control wells that contained enzyme, substrate and DMSO. For each well, the percent of control was calculated by dividing the well value by the average DMSO value obtained above.

[2] = biological target: T2, human MMP-2 (amino acids 1-660) (Homo sapiens, UniProt P08253); assay: MMP dose response assay for determining IC50, MMP-2; details: recombinant enzyme, fluorescent-quench substrate 100 nM; read-out: MMP-2
T2 construct: human MMP-2 (amino acids 1-660); made in house
T2 sequence (P08253 110-660): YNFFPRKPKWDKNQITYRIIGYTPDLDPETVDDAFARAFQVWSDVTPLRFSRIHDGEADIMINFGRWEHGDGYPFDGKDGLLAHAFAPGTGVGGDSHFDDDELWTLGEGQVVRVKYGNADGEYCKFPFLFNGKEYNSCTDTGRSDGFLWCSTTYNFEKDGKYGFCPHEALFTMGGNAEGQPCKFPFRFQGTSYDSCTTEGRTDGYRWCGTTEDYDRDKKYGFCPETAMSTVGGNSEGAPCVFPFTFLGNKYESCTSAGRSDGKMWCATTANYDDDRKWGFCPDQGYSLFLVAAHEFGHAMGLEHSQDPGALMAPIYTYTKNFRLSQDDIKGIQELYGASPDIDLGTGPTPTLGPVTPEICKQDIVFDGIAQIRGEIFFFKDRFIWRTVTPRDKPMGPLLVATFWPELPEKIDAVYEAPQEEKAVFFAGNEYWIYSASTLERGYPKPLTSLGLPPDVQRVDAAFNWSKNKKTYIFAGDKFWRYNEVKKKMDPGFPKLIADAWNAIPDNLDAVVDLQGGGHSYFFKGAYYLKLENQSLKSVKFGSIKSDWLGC
Experimental: as §1, §2

[3] = biological target: T3, human MMP-9 (amino acids 107-446) (Homo sapiens, UniProt P14780); assay: MMP dose response assay for determining IC50, MMP-9
T3 construct: human MMP-9 (amino acids 107-446); made in house
Experimental: as §1, §2

[4] = recombinant enzyme, fluorescent-quench substrate 100 nM, read-out: MMP-9

T3 sequence (P14780 107-446): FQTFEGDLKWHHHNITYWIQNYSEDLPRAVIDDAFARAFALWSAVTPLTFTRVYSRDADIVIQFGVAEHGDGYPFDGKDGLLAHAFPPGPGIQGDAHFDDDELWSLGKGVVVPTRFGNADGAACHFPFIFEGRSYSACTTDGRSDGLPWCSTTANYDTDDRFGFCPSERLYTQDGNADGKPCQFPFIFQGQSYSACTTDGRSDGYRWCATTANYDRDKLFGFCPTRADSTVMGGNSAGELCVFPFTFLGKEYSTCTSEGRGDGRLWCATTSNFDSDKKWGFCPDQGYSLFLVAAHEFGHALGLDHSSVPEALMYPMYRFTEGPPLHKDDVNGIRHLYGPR

Row | Compound | IC50 [1] | IC50 [2] | IC50 [3, 4] | IC50 ([3]; MMP-9 (nM))
1 | CS(=O)(=O)N(C[C@H](O)C(=O)NO)c1ccc(Oc2ccc(Cl)cc2)cc1 [Compound 1, N-Hydroxy (2S)-2-hydroxy-3-{N-[4-(4-chlorophenoxy)phenyl], N-methanesulfonylamino}propionamide] | > 10000 nM | 39.5 nM and 30.3 nM | 5.04 nM and 4.35 nM | 
2 | CO[C@@H](CN(c1ccc(Oc2ccc(C)cc2)cc1)S(C)(=O)=O)C(=O)NO [Compound 2, N-Hydroxy (2S)-2-methoxy-3-{N-[4-(4-methylphenoxy)phenyl], N-methanesulfonylamino}propionamide] | > 10000 nM | 43.6 nM and 28.8 nM | 4.15 nM | 3.73 nM
3 | Cc1ccc(Oc2ccc(N(C[C@H](NC(=O)C(C)C)C(=O)NO)S(C)(=O)=O)cc2)cc1 [Example 4, N-Hydroxy (2S)-3-{N-[4-(4-methylphenoxy)phenyl],N-methanesulfonylamino}-2-(2-propylcarbonylamino)propionamide] | > 10000 nM | 53 nM and 86.7 nM | 4.89 nM and 6 nM | 
4 | Cc1ccc(Oc2ccc(N(CC(C)(O)C(=O)NO)S(C)(=O)=O)cc2)cc1 (centres unmarked) [Example 6, N-Hydroxy 2-hydroxy-2-methyl-3-{N-[4-(4-methylphenoxy)phenyl],N-methanesulfonylamino}propionamide] | 5570 nM | 19.1 nM and 22.6 nM and 29.7 nM and 16.6 nM and 18.9 nM and 14.5 nM | 7.4 nM and 7.76 nM and 7.44 nM and 4.82 nM and 2.17 nM and 3.57 nM | 
5 | CS(=O)(=O)N(C[C@@H](O)C(=O)NO)c1ccc(Oc2ccccc2)cc1 [Example 11, N-Hydroxy (2R)-2-hydroxy-3-[N-(4-phenoxy)phenyl,N-methanesulfonylamino]propionamide] | > 10000 nM | 472 nM | 106 nM | 
6 | CS(=O)(=O)N(C[C@H](O)C(=O)NO)c1ccc(Oc2ccccc2)cc1 [Example 12, N-Hydroxy (2S)-2-hydroxy-3-[N-(4-phenoxy)phenyl,N-methanesulfonylamino]propionamide] | > 10000 nM | 306 nM and 189 nM | 49.7 nM and 29.2 nM | 
7 | CS(=O)(=O)N(C[C@@H](O)C(=O)NO)c1ccc(Oc2ccc(Cl)cc2)cc1 [Example 13, N-Hydroxy (2R)-2-hydroxy-3-{N-[4-(4-chlorophenoxy)phenyl],N-methanesulfonylamino}propionamide] | 9680 nM and 5430 nM | 24.1 nM and 44.9 nM | 5.57 nM and 7.16 nM | 
8 | Cc1ccc(Oc2ccc(N(C[C@H](O)C(=O)NO)S(=O)(=O)Cc3ccccc3)cc2)cc1 [Example 14, N-Hydroxy (2S)-2-hydroxy-3-{N-[4-(4-methylphenoxy)phenyl],N-phenylmethylsulfonylamino}propionamide] | > 10000 nM | 582 nM | 92.9 nM | 
9 | CCCS(=O)(=O)N(C[C@H](O)C(=O)NO)c1ccc(Oc2ccc(C)cc2)cc1 [Example 15, N-Hydroxy (2S)-2-hydroxy-3-{N-[4-(4-methylphenoxy)phenyl],N-(1-propyl)sulfonylamino}propionamide] | > 10000 nM | 509 nM | 124 nM | 
10 | Cc1ccc(Oc2ccc(N(C[C@H](O)C(=O)NO)S(=O)(=O)C(C)C)cc2)cc1 [Example 16, N-Hydroxy (2S)-2-hydroxy-3-{N-[4-(4-methylphenoxy)phenyl],N-(2-propyl)sulfonylamino}propionamide] | > 10000 nM |  | 286 nM | 
11 | CO[C@H](CN(c1ccc(Oc2ccc(C)cc2)cc1)S(C)(=O)=O)C(=O)NO [Example 17, N-Hydroxy (2R)-2-methoxy-3-{N-[4-(4-methylphenoxy)phenyl],N-methanesulfonylamino}propionamide] | > 10000 nM | 101 nM |  | 12.7 nM
12 | Cc1ccc(Oc2ccc(N(C[C@H](NC(C)C)C(=O)NO)S(C)(=O)=O)cc2)cc1 [Example 18, N-Hydroxy (2S)-3-{N-[4-(4-methylphenoxy)phenyl],N-methanesulfonylamino}-2-[(2-propyl)amino]propionamide] | > 10000 nM and 9560 nM and 4170 nM and 8390 nM and 6950 nM | 3.63 nM and 2.51 nM and 3.25 nM and 5.11 nM and 5.46 nM and 4.21 nM | 0.61 nM and 0.75 nM and 0.3 nM and 0.41 nM and 0.45 nM | 
13 | Cc1ccc(Oc2ccc(N(C[C@H](O)C(=O)NO)S(=O)(=O)N(C)C)cc2)cc1 [Example 19, N-Hydroxy (2S)-2-hydroxy-3-{N-[4-(4-methylphenoxy)phenyl],N-(dimethylamino)sulfonylamino}propionamide] | > 10000 nM |  | 243 nM | 
14 | Cc1ccc(Oc2ccc(N(C[C@H](O)C(=O)NO)S(=O)(=O)c3ccccc3)cc2)cc1 [Example 21, N-Hydroxy (2S)-2-hydroxy-3-{N-[4-(4-methylphenoxy)phenyl],N-phenylsulfonylamino}propionamide] | > 10000 nM |  | 344 nM | 
15 | Cc1ccc(Oc2ccc(N(C[C@H](Nc3ccccc3)C(=O)NO)S(C)(=O)=O)cc2)cc1 [Example 30, N-Hydroxy (2S)-3-{N-[4-(4-methylphenoxy)phenyl],N-methanesulfonylamino}-2-phenylaminopropionamide] | > 10000 nM and 6220 nM and 8730 nM and 7280 nM and 7460 nM | 18.6 nM and 15.4 nM and 15.3 nM and 5.27 nM and 9.5 nM and 9.9 nM and 7.96 nM |  | 
16 | Cc1ccc(C#Cc2ccc(N(C[C@H](O)C(=O)NO)S(C)(=O)=O)cc2)cc1 [Example 63, N-Hydroxy (2S)-2-hydroxy-3-{N-[4-(4-methylphenylacetylene)phenyl],N-methanesulfonylamino}propionamide] | > 10000 nM | 28.2 nM and 65.9 nM |  | 
17 | CS(=O)(=O)N(C[C@@H](C(=O)NO)N1CCc2ccccc2C1)c1ccc(Oc2ccc(C(F)(F)F)cc2)cc1 [Example 73, N-Hydroxy (2S)-2-(1,2,3,4-tetrahydroisoquinolin-2-yl)-3-{N-[4-(4-trifluoromethylphenoxy)phenyl],N-methanesulfonylamino}propionamide] | > 10000 nM |  |  | 
18 | C[C@@H]1CN([C@@H](CN(c2ccc(Oc3ccc(Cl)cc3)cc2)S(C)(=O)=O)C(=O)NO)C[C@H](C)O1 [Example 95, N-Hydroxy (2S)-3-{N-[4-(4-chlorophenoxy)phenyl],N-methanesulfonylamino}-2-(cis-2,6-dimethylmorpholin-4-yl)propionamide] |  | 2.54 nM and 3.69 nM and 1.28 nM | 0.57 nM and 0.64 nM and 0.17 nM | 
19 | CS(=O)(=O)N(C[C@@H](C(=O)NO)N1CCCCC1)c1ccc(Oc2ccc(C(F)(F)F)cc2)cc1 [Example 96, N-Hydroxy (2S)-2-(piperidin-1-yl)-3-{N-[4-(4-trifluoromethylphenoxy)phenyl],N-methanesulfonylamino}propionamide] |  | 7.55 nM | 2.34 nM | 
20 | CN(O)C(=O)[C@H](CN(c1ccc(Oc2ccc(C(F)(F)F)cc2)cc1)S(C)(=O)=O)N1CCOCC1 [Example 98, N-Hydroxy,N-methyl (2S)-2-(morpholin-4-yl)-3-{N-[4-(4-trifluoromethylphenoxy)phenyl],N-methanesulfonylamino}propionamide] |  | 447 nM | 159 nM | 
21 | CC(C)O[C@@H](CN(c1ccc(Oc2ccc(C(F)(F)F)cc2)cc1)S(C)(=O)=O)C(=O)NO [Example 99, N-Hydroxy (2S)-2-(2-propoxy)-3-{N-[4-(4-trifluoromethylphenoxy)phenyl],N-methanesulfonylamino}propionamide] |  | 50.3 nM | 8.18 nM | 
22 | Cc1ccc(Oc2ccc(N(C[C@@H](C(=O)NO)N3C[C@@H](C)O[C@@H](C)C3)S(C)(=O)=O)cc2)cc1 [Example 100, N-Hydroxy (2S)-2-(cis-2,6-dimethylmorpholin-4-yl)-3-{N-[4-(4-methylphenoxy)phenyl],N-methanesulfonylamino}propionamide] |  | 2.83 nM | 0.68 nM | 
23 | CS(=O)(=O)N(C[C@H](O)C(=O)N(O)CCN1CCOCC1)c1ccc(Oc2ccc(Cl)cc2)cc1 [Example 101, N-Hydroxy,N-[2-(morpholin-4-yl)ethyl](2S)-2-hydroxy-3-{N-[4-(4-chlorophenoxy)phenyl],N-methanesulfonylamino}propionamide] |  | 1400 nM | 206 nM | 
24 | C=CCN(O)C(=O)[C@H](CN(c1ccc(Oc2ccc(C)cc2)cc1)S(C)(=O)=O)N1C[C@@H](C)O[C@@H](C)C1 [Example 102, N-(3-Allyl),N-hydroxy (2S)-2-(cis-2,6-dimethylmorpholin-4-yl)-3-{N-[4-(4-methylphenoxy)phenyl],N-methanesulfonylamino}propionamide] |  | 23 nM and 24.8 nM | 6.53 nM and 6.01 nM | 

From US20080085893A1, “MATRIX METALLOPROTEASE INHIBITORS” (priority 2006, published 2008)
